By IC50 is commonly meant the concentration at which inhibition is half-maximal. The low end stands for greater potency, the high end for weaker potency.

This passage reports IC50 results from patent publication US12195482B1 (Arcus Biosciences, Inc., priority 2022, dated 2025).

Where only a bound is given, the exact number is not on record here.

The experiment addresses T1, p-AXL (Homo sapiens, UniProt P30530).
T1 construct: expressed in transfected cells; host or cells: HEK293T
T1 sequence (P30530 26-894): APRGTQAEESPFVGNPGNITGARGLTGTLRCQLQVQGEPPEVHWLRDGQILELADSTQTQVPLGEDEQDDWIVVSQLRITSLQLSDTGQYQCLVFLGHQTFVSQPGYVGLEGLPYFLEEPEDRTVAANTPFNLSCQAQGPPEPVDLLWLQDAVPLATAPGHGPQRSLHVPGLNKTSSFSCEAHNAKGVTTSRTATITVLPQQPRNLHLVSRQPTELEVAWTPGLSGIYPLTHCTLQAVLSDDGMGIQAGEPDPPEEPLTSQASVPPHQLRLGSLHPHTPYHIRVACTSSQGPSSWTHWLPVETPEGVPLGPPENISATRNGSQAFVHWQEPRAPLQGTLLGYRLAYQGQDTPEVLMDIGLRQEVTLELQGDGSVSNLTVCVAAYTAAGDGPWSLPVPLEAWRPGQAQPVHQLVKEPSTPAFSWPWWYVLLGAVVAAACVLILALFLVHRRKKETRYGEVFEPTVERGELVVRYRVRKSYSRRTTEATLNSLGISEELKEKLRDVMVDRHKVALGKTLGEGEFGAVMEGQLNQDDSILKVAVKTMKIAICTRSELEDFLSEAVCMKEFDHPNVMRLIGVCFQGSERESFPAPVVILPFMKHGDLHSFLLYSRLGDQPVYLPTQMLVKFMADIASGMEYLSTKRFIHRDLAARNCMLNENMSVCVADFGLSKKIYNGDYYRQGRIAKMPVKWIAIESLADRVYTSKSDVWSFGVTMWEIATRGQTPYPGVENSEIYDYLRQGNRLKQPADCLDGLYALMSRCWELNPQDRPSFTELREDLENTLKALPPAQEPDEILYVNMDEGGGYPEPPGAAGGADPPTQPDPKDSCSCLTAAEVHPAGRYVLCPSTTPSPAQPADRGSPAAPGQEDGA
Put plainly: Axl phosphorylation inhibition ELISA in HEK293T cells transfected with NanoLuc-tagged AXL. Type of experiment: cell-based. As to conditions: 1 h compound incubation, media (OptiMEM). In short, it runs like this:
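HEK293T cells transiently transfected one day earlier with NanoLuc-tagged AXL were exposed to 22-point 2-fold compound dilutions for 1 h at 37° C (70,000 cells/well), then lysed. Lysates captured on anti-phospho-tyrosine coated plates for 2 h; bound p-AXL read by NanoLuc luminescence; IC50 from 4-parameter logistic fit.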
On the technique in general: An ELISA detects its analyte on a solid surface through an enzyme-linked reagent.
`Cc1cnc(C)c(-c2ccc(-c3c[nH]c4ncc(-c5ccc6c(c5)CC[C@@H](N5C7COCC5C7)CC6)cc34)cc2)n1` [Example 53, 6-[(7S)-2-{3-[4-(3,6-Dimethylpyrazin-2-yl)phenyl]-1H-pyrrolo[2,3-b]pyridin-5-yl}-6,7,8,9-tetrahydro-5H-benzo[7]annulen-7-yl]-3-oxa-6-azabicyclo[3.1.1]heptane] gave an IC50 below 100 nM. As for `FC(F)c1cccnc1-c1ccc(-c2n[nH]c3ncc(-c4ccc5c(c4)CC[C@@H](N4C6COCC4C6)CC5)cc23)cc1` [Example 89, 6-[(7S)-3-[3-[4-[3-(Difluoromethyl)pyridin-2-yl]phenyl]-1H-pyrazolo[3,4-b]pyridin-5-yl]-6,7,8,9-tetrahydro-5H-benzo[7]annulen-7-yl]-3-oxa-6-azabicyclo[3.1.1]heptane], the IC50 is 100 to 1000 nM. Regarding `C[C@@H]1CCCN1[C@@]1(C)CCc2ccc(-c3cnc4[nH]nc(-c5ccc(-c6nccs6)cc5)c4c3)cc2CC1` [Example 91, 2-(4-{5-[(7S)-7-Methyl-7-[(2R)-2-methylpyrrolidin-1-yl]-6,7,8,9-tetrahydro-5H-benzo[7]annulen-2-yl]-2H-pyrazolo[3,4-b]pyridin-3-yl}phenyl)-1,3-thiazole], the IC50 was in the range of 100 to 1000 nM. Take `c1cc(-n2cc(-c3c[nH]c4ncc(-c5ccc6c(c5)CC[C@@H](N5C7COCC5C7)CC6)cc34)cn2)ccn1` [Example 45, 6-[(7S)-2-{3-[1-(Pyridin-4-yl)-1H-pyrazol-4-yl]-1H-pyrrolo[2,3-b]pyridin-5-yl}-6,7,8,9-tetrahydro-5H-benzo[7]annulen-7-yl]-3-oxa-6-azabicyclo[3.1.1]heptane]: the IC50 is 100 to 1000 nM. The value for `Cc1cncnc1-c1ccc(-c2c[nH]c3ncc(-c4ccc5c(c4)CC[C@@H](N4C6COCC4C6)CC5)cc23)cc1` [Example 47, 6-[(7S)-2-{3-[4-(5-Methylpyrimidin-4-yl)phenyl]-1H-pyrrolo[2,3-b]pyridin-5-yl}-6,7,8,9-tetrahydro-5H-benzo[7]annulen-7-yl]-3-oxa-6-azabicyclo[3.1.1]heptane] was below 100 nM.

For `Cc1cnc(-c2ccc(-c3c[nH]c4ncc(-c5ccc6c(c5)CC[C@@](C)(N5CCC[C@H]5C)CC6)cc34)cc2)c(C)n1` [Example 57, 3,5-Dimethyl-2-(4-{5-[(7S)-7-methyl-7-[(2R)-2-methylpyrrolidin-1-yl]-6,7,8,9-tetrahydro-5H-benzo[7]annulen-2-yl]-1H-pyrrolo[2,3-b]pyridin-3-yl}phenyl)pyrazine], the half-inhibitory concentration (IC50) was below 100 nM. Then `Cc1cnc(-c2ccc(-c3c[nH]c4ncc(-c5ccc6c(c5)CC[C@@H](N5C7COCC5C7)CC6)cc34)cc2)c(C)n1` [Example 50, 6-[(7S)-2-{3-[4-(3,5-Dimethylpyrazin-2-yl)phenyl]-1H-pyrrolo[2,3-b]pyridin-5-yl}-6,7,8,9-tetrahydro-5H-benzo[7]annulen-7-yl]-3-oxa-6-azabicyclo[3.1.1]heptane], with below 100 nM; and `Cc1cccnc1-c1ccc(-c2n[nH]c3ncc(-c4ccc5c(c4)CC[C@@H](N4C6COCC4C6)CC5)cc23)cc1` [Example 2, 6-[(7S)-2-{3-[4-(3-Methylpyridin-2-yl)phenyl]-2H-pyrazolo[3,4-b]pyridin-5-yl}-6,7,8,9-tetrahydro-5H-benzo[7]annulen-7-yl]-3-oxa-6-azabicyclo[3.1.1]heptane], with below 100 nM. In turn, `c1cc(-c2ccc(-c3c[nH]c4ncc(-c5ccc6c(c5)CC[C@@H](N5C7COCC5C7)CC6)cc34)cc2)ccn1` [Example 41, 6-[(7S)-2-{3-[4-(Pyridin-4-yl)phenyl]-1H-pyrrolo[2,3-b]pyridin-5-yl}-6,7,8,9-tetrahydro-5H-benzo[7]annulen-7-yl]-3-oxa-6-azabicyclo[3.1.1]heptane] came in with a 50% inhibitory concentration (IC50) of 100 to 1000 nM. As to `COc1ccnc(-c2ccc(-c3n[nH]c4ncc(-c5ccc6c(c5)CC[C@@H](N5C7COCC5C7)CC6)cc34)cc2)c1C` [Example 87, 6-[(7S)-3-[3-[4-(4-Methoxy-3-methylpyridin-2-yl)phenyl]-1H-pyrazolo[3,4-b]pyridin-5-yl]-6,7,8,9-tetrahydro-5H-benzo[7]annulen-7-yl]-3-oxa-6-azabicyclo[3.1.1]heptane], the IC50 was 100 to 1000 nM. The value for `Clc1cc(-c2c[nH]c3ncc(-c4ccc5c(c4)CC[C@@H](N4C6COCC4C6)CC5)cc23)ccc1-c1ccccn1` [Example 44, 6-[(7S)-2-{3-[3-Chloro-4-(pyridin-2-yl)phenyl]-1H-pyrrolo[2,3-b]pyridin-5-yl}-6,7,8,9-tetrahydro-5H-benzo[7]annulen-7-yl]-3-oxa-6-azabicyclo[3.1.1]heptane] was 100 to 1000 nM. On to `COCCOc1cccnc1-c1ccc(-c2c[nH]c3ncc(-c4ccc5c(c4)CC[C@@H](N4C6COCC4C6)CC5)cc23)cc1` [Example 3, 6-[(7S)-2-(3-{4-[3-(2-Methoxyethoxy)pyridin-2-yl]phenyl}-1H-pyrrolo[2,3-b]pyridin-5-yl)-6,7,8,9-tetrahydro-5H-benzo[7]annulen-7-yl]-3-oxa-6-azabicyclo[3.1.1]heptane], for which the IC50 was below 100 nM. In turn, `N#Cc1cccnc1-c1ccc(-c2n[nH]c3ncc(-c4ccc5c(c4)CC[C@@H](N4C6COCC4C6)CC5)cc23)cc1` [Example 52, 2-(4-{5-[(7S)-7-{3-Oxa-6-azabicyclo[3.1.1]heptan-6-yl}-6,7,8,9-tetrahydro-5H-benzo[7]annulen-2-yl]-1H-pyrazolo[3,4-b]pyridin-3-yl}phenyl)pyridine-3-carbonitrile] gave an IC50 below 100 nM. `COc1ccnc(-c2ccc(-c3c[nH]c4ncc(-c5ccc6c(c5)CC[C@@H](N5C7COCC5C7)CC6)cc34)cc2)c1C` [Example 86, 6-[(7S)-3-[3-[4-(4-Methoxy-3-methylpyridin-2-yl)phenyl]-1H-pyrrolo[2,3-b]pyridin-5-yl]-6,7,8,9-tetrahydro-5H-benzo[7]annulen-7-yl]-3-oxa-6-azabicyclo[3.1.1]heptane] gave a 50% inhibitory concentration (IC50) of 100 to 1000 nM. `Cc1ccnnc1-c1ccc(-c2n[nH]c3ncc(-c4ccc5c(c4)CC[C@@H](N4C6COCC4C6)CC5)cc23)nc1` [Example 56, 6-[(7S)-2-{3-[5-(4-Methylpyridazin-3-yl)pyridin-2-yl]-1H-pyrazolo[3,4-b]pyridin-5-yl}-6,7,8,9-tetrahydro-5H-benzo[7]annulen-7-yl]-3-oxa-6-azabicyclo[3.1.1]heptane] registered an IC50 below 100 nM. Then `Cc1cnc(C)c(-c2ccc(-c3c[nH]c4ncc(-c5ccc6c(c5)CC[C@@](C)(N5CCC[C@H]5C)CC6)cc34)cc2)n1` [Example 58, 2,5-Dimethyl-3-(4-{5-[(7S)-7-methyl-7-[(2R)-2-methylpyrrolidin-1-yl]-6,7,8,9-tetrahydro-5H-benzo[7]annulen-2-yl]-1H-pyrrolo[2,3-b]pyridin-3-yl}phenyl)pyrazine], with below 100 nM; and `FC(F)(F)c1cccnc1-c1ccc(-c2n[nH]c3ncc(-c4ccc5c(c4)CC[C@@H](N4C6COCC4C6)CC5)cc23)cc1` [Example 88, 6-[(7S)-3-[3-[4-[3-(Trifluoromethyl)pyridin-2-yl]phenyl]-1H-pyrazolo[3,4-b]pyridin-5-yl]-6,7,8,9-tetrahydro-5H-benzo[7]annulen-7-yl]-3-oxa-6-azabicyclo[3.1.1]heptane], with 100 to 1000 nM; and `Cc1cc(C)c(-c2ccc(-c3n[nH]c4ncc(-c5ccc6c(c5)CC[C@@](C)(N5CCC[C@H]5C)CC6)cc34)cc2)nn1` [Example 78, 4,6-Dimethyl-3-(4-{5-[(7S)-7-methyl-7-[(2R)-2-methylpyrrolidin-1-yl]-6,7,8,9-tetrahydro-5H-benzo[7]annulen-2-yl]-1H-pyrazolo[3,4-b]pyridin-3-yl}phenyl)pyridazine], with below 100 nM. With `Cc1nccnc1-c1ccc(-c2c[nH]c3ncc(-c4ccc5c(c4)CC[C@@H](N4C6COCC4C6)CC5)cc23)nc1` [Example 54, 6-[(7S)-2-{3-[5-(3-Methylpyrazin-2-yl)pyridin-2-yl]-1H-pyrrolo[2,3-b]pyridin-5-yl}-6,7,8,9-tetrahydro-5H-benzo[7]annulen-7-yl]-3-oxa-6-azabicyclo[3.1.1]heptane], the IC50 is below 100 nM. The value for `Cc1ccnnc1-c1ccc(-c2c[nH]c3ncc(-c4ccc5c(c4)CC[C@@H](N4C6COCC4C6)CC5)cc23)cc1` [Example 49, 6-[(7S)-2-{3-[4-(4-Methylpyridazin-3-yl)phenyl]-1H-pyrrolo[2,3-b]pyridin-5-yl}-6,7,8,9-tetrahydro-5H-benzo[7]annulen-7-yl]-3-oxa-6-azabicyclo[3.1.1]heptane] was below 100 nM; that for `N#Cc1cccnc1-c1ccc(-c2c[nH]c3ncc(-c4ccc5c(c4)CC[C@@H](N4C6COCC4C6)CC5)cc23)cc1` [Example 46, 2-(4-{5-[(7S)-7-{3-Oxa-6-azabicyclo[3.1.1]heptan-6-yl}-6,7,8,9-tetrahydro-5H-benzo[7]annulen-2-yl]-1H-pyrrolo[2,3-b]pyridin-3-yl}phenyl)pyridine-3-carbonitrile] was below 100 nM.
